Data taken from patent publication US12447167B2, “GM-CSF-producing t-cell control agent and Th1/Th2 immune balance regulator” (National Center of Neurology and Psychiatry, priority 2014, dated 2025).

Test system: GM-CSF
Experiment: GM-CSF expression level of sorted CD4-positive memory T-cells of MS patients (ELISA of culture supernatant)
Assay type: in vivo, human
Details: 0.3 mg single oral
Procedure: A single dose of compound 31, which is a synthetic glycolipid of the present invention, described in the first aspect was orally administered to each of 2 MS patients (subjects) shown in Table 2 above after obtainment of informed consent. The dose was set to 0.3 mg per person.
Subsequently, T-cell subfractions were prepared from the peripheral blood of each subject by using the density gradient centrifugation method. First, a total of 20 mL of blood was collected from the vein of each subject 24 hours (1st day), 48 hours (2nd day), 72 hours (3rd day), 168 hours (7th day), and 192 hours (8th day) after the administration of compound 31 by using two 10-mL heparin sodium-containing vacuum blood collection tubes. For a control, 20 mL of blood was similarly collected from the vein of each subject one day before the administration of compound 31.
The collected PBMCs were stained with antibodies by the following method. First, 10 μL of a solution consisting of 20 μL of MACS buffer, 0.25 μL of APC-Cy7-anti-CD3 antibody (BioLegend, Inc.), 1 μL of PB-anti-CD4 antibody (BioLegend, Inc.), 1 μL of PerCP-Cy5.5-anti-CD45RA antibody (BioLegend, Inc.), and 1 μL of PC7-anti-CD56 antibody (Beckman Coulter, Inc.) was added to 6×10^6 cells of PBMCs, thoroughly mixed by vortexing, and then left on ice for 20 minutes. CD56 is a detection marker of cells having NK activity, and CD3^−CD56^− cells indicate being antigen-presenting cells (APCs). […]
mCD4T and APC obtained by the sorting were each suspended in a medium consisting of 500 mL of RPMI1640 (GIBCO/Thermo Fisher Scientific Inc.), 5 mL of glutamine (200 mM, Wako Pure Chemical Industries, Ltd.), 5 mL of Pen/strep (10,000 U/mL, GIBCO/Thermo Fisher Scientific Inc.), 0.5 mL of 2-mercaptoethanol (GIBCO/Thermo Fisher Scientific Inc.), and 50 mL of 10% (v/v) Cellect FETAL BOVINE SERUM (MP Biomedicals, LLC), and the number of cells was measured. […]
After the culture, a culture supernatant was collected, and IFN-γ, IL-4, IL-17, and GM-CSF were measured by the ELISA method. […]

## CCCCCCCCCCCCCCCCCCCCCCCC(=O)NC(COC1OC(CO)C(O)C(O)C1O)[C@H](O)C(O)CCCCC (stereo in doubt) [compound 31, (2S,3S,4R)-1-O-(α-D-galactosyl)-2-(N-tetracosanoylamino)-1,3,4-nonanetriol]
Day 8, MBP stimulation, day −1 value 153.15
  GM-CSF expression level: 50.81
Day 8, OVA stimulation, day −1 value 224.87
  GM-CSF expression level: 168.45
day8 vs day-1
  change of expression level of GM-CSF: decreased
